How the values were obtained:
[1] = test system: FFA-activated K^+ current of cultured human corneal epithelial cells; assay: Perforated-patch whole-cell patch clamp, pharmacological activators (FFA-activated current); format: cell-based; conditions: for effect on the FFA-activated current: 3 mM TEA or 5 mM Ba^+2
Protocol: (§1) Single cells for patch clamp analysis of transfected and non-transfected cells were obtained by washing cultured cells free of culture medium using PBS containing 0.53 mM EDTA and then incubating with Ca^+2 and Mg^+2 free Hanks' balanced salt solution (GIBCO) containing 0.05% trypsin and 0.53 mM EDTA for 2 minutes at 37° C. in a 5% CO2 incubator. Loose cells were aspirated into a Pasteur pipette and transferred into a conical tube containing Media 199 (Sigma, St. Louis, Mo.) supplemented with 10% FCS (Sigma, St. Louis, Mo.). Isolated cells were transferred to an inverted microscope mounted with an external stage, placed into an acrylic chamber filled with Ringer's solution, and allowed to settle and attach to the glass bottom.
Macroscopic currents in single cells were examined using the perforated-patch configuration of the whole-cell patch-clamp technique with amphotericin B as the perforating agent. The composition of the patch pipette in millimolar was 145 potassium methanesulfonate, 2.5 NaCl, 2.5 CaCl2, 5 HEPES, and […] amphotericin B. Patch pipettes were fabricated from KG-12 capillary glass, coated with Sylgard (Dow Corning, Midland, Mich.) and fire polished. Currents were recorded at room temperature using a patch-clamp amplifier operated by Gateway 486DX2 computer (Gateway 2000, Sioux City, S. Dak.) loaded with pCLAMP software (Axon 200A, Axon Instruments, Foster City, Calif.) for the generation of voltage-clamp protocols. Current recordings were capacity compensated using the amplifier circuitry, sampled between 2 to 5 kHz, filtered between 1 to 2 kHz, and subsequently analyzed with the software program. Voltage-clamp protocols were repeated at least three times to obtain the average current response to a voltage pulse. Current voltage (I-V) relationships were corrected for the junction potential generated by the pipette solution and the amphotericin B-induced Donnan potential by subtracting the difference between the reversal potential of tail currents measured in symmetrical K^+ solutions and the 0 mV potential.
The tests of examples 1.1, 1.2, and 1.3 were repeated following the addition of 100 μM flufenamic acid (FFA) to the NaCl Ringer's bath.
To determine the ion selectivity of this TEA-sensitive FFA-activated current, cultured human corneal epithelial cells were bathed in NaCl Ringer's solution with 100 μM FFA and a family of instantaneous tail currents was generated. The same cells were then bathed in NaCl Ringer's solution with 100 μM FFA and 3 mM TEA and a second family of instantaneous tail currents was generated. An instantaneous tail I-V plot was obtained by digitally subtracting the instantaneous tail responses determined for the same cell bathed with FFA with and without TEA.

[2] = test system: nonselective cation current of human corneal epithelial cells; assay: Perforated-patch whole-cell patch clamp, nonselective cation current; format: cell-based; conditions: 1 mM external
Protocol: as §1
Macroscopic currents in single cells were examined using the perforated-patch configuration of the whole-cell patch-clamp technique with amphotericin B as the perforating agent. […] Currents were recorded at room temperature using a patch-clamp amplifier operated by Gateway 486DX2 computer (Gateway 2000, Sioux City, S. Dak.) loaded with pCLAMP software (Axon 200A, Axon Instruments, Foster City, Calif.) for the generation of voltage-clamp protocols. Current recordings were capacity compensated using the amplifier circuitry, sampled between 2 to 5 kHz, filtered between 1 to 2 kHz, and subsequently analyzed with the software program. […]

[3] = test system: endothelium of reconstructed corneas (Na/K ATPase); assay: Endothelial function test: corneal thickness by Optical Coherence Tomography after ouabain; format: cell-based, human; conditions: 10^-4M ouabain in DMEM, 2 hours, silicone oil on epithelium; one set of corneas, preliminary
Excerpt: Ouabain, a cardiac glycoside, inhibits Na/K ATPase, disrupting corneal endothelial functioning. When this is applied to the cornea, the endothelium looses its pumping function, and without this, the cornea will swell (Watsky et al. 1990).
1. Corneas were reconstructed in 30 mm inserts. In this experiment, we have contructed them with the epithelium down.
2. A whole cornea was immersed in DMEM only.
3. At the start of the experiment, medium outside insert was removed and replaced with silicone oil. This essentially seals off the epithelium. Corneal thickness was measured using Optical Coherence Tomography (OCT) (Humphrey Instruments, Carl Zeiss, Inc.). Four readings were taken from each cornea and the average was taken.
4. DMEM within the control insert was replaced with 1 ml of fresh DMEM only. Experimental cornea was treated with 10^-4M ouabain in DMEM.
5. After 2 hours, the corneal thicknesses were measured by OCT.
6. Changes in corneal thickness (if any) was calculated.

[4] = test system: primary HUVECs (Normal Cells); assay: Response to growth factors, primary HUVECs in matrix; format: cell-based, human
Protocol: Human umbilical vein endothelial cells (HUVECs) were harvested from umbilical cord veins as previously described (Sirois E, et al., Int. J. Artificial Organs 16:609-619, 1993). They were grown on a gelatin-coated dish until confluence in Medium 199 supplemented with 20% FBS, 90 mg/l of heparin, 2 mM of L-glutamine and 100 μg/ml endothelial cell growth supplement (ECGS). Penicillin (100 I.U./ml), streptomycin sulfate (100 μg/ml) and amphotericin B (0.25 μg/ml) were present in medium. After the first passage, FBS concentration was reduced to 10% and ECGS to 20 μg/ml. Cells were subcultured at a ratio of 1:3 or 1:4 and HUVECs from the 2nd to 4th passages were used in our bioassays. Endothelial cell phenotype was verified by the dii-acetylated low-density lipoprotein (diI-Ac-LDL) uptake and positivity to factor VIII-related antigen antibodies by immunocytochemistry. Cultures were incubated in 5% CO2 atmosphere at 37° C. in saturated humidity. The medium was changed every other day.
The virally transfected HUVECs were tested for functionality by their ability to undergo angiogenesis in a three-dimensional fibrin-containing matrix (FIG. 16); and their ability to sequester acetylated low density lipoprotein labelled with 1,1′-dioctadecyl-3,3,3′,3′-tetramethylindocarbocyanine perchlorate (DiI-Ac-LDL; Biomed. Technol. Inc., Stoughton, Mass.), (FIGS. 17 and 18). […]

[5] = test system: immortalized HUVECs (Cell Lines); assay: Response to growth factors, immortalized HUVECs in matrix; format: cell-based, human
Protocol: For transfection, primary HUVECs were seeded onto uncoated 60 mm tissue culture plates and cultured until 60-70% confluent. They were then immortalized by infection with the HPV16 E6 and E7 genes and selected by G418 resistance as described above.
The virally transfected HUVECs were tested for functionality by their ability to undergo angiogenesis in a three-dimensional fibrin-containing matrix (FIG. 16); and their ability to sequester acetylated low density lipoprotein labelled with 1,1′-dioctadecyl-3,3,3′,3′-tetramethylindocarbocyanine perchlorate (DiI-Ac-LDL; Biomed. Technol. Inc., Stoughton, Mass.), (FIGS. 17 and 18). Immortalized HUVECs can also be maintained in the serum-free medium. As with corneal cell lines, other genes can also be introduced into HUVEC lines. For example, GFP has been introduced by transfection.
During the assays in matrices, cells were grown in serum (10%) supplemented-medium 199 containing heparin, L-glutamine or modified glutamine such as L-Alanyl-L-Glutamine (GlutaMAX™, GIBCO) and antibiotics at the same concentration as described above, without ECGS, but with 50 ng/ml of FGF-2. Serum-free medium has also been used.

reconstructed corneas [6] = assay: Responses of reconstructed corneas to aqueous test chemicals (wound, corneal transparency); format: cell-based, human; conditions: 100 μl centrally for 10 min, washed off with saline, re-cultured 3 days; 10% SDS, 0.01% benzalkonium chloride solution
Protocol: Each cornea was exposed centrally to 100 μl of the test chemical for 10 min, after which the chemical was washed off with saline and the corneas were re-cultured for a further 3 days. The saline-treated cornea served as the control.

reconstructed corneas [7] = assay: Live-dead staining of reconstructed corneas after chemical exposure; format: cell-based, human; conditions: SDS; 0.01% benzalkonium chloride solution
Excerpt: Live cells are green, while dying or dead cells are orange-red. […] C.

Compound: O=C(O)c1ccccc1Nc1cccc(C(F)(F)F)c1 [FFA, flufenamic acid]
- voltages at which a second FFA-stimulated K^+ current is active [1]: greater than +10 mV
- activation voltage of the FFA-stimulated current (I-V plot) ([1]; 100 μM FFA): about −60 mV
- increase in the maximum outward current ([1]; 100 μM FFA in NaCl Ringer's bath, versus cells not exposed): more than 10 fold
- Erev for the TEA-sensitive FFA-activated current ([1]; 100 μM FFA with and without 3 mM TEA, digital subtraction of instantaneous tail currents): about −80 mV
- reversibility of the FFA response ([1]; 100 μM FFA, same cell): reversible and repeatable

Compound: CC[N+](CC)(CC)CC [TEA, tetraethylammonium]
- effect on the FFA-activated current ([1]; 100 μM FFA): blocked

Compound: [Ba+2] [barium]
- sensitivity of the nonselective cation current [2]: not sensitive
- effect on the FFA-activated current ([1]; 100 μM FFA): blocked

Compound: [Gd] [gadolinium]
- sensitivity of the nonselective cation current [2]: not sensitive

Compound: C[C@@H]1O[C@@H](O[C@H]2C[C@@H](O)[C@]3(CO)[C@H]4[C@H](O)C[C@]5(C)[C@@H](C6=CC(=O)OC6)CC[C@]5(O)[C@@H]4CC[C@]3(O)C2)[C@H](O)[C@H](O)[C@H]1O [ouabain, Ouabain]
- change in corneal thickness (swelling) [3]: 24%

Compound: FGF-2: basic fibroblast growth factor
- Response to Growth Factors, Normal Cells ([4]; FGF-2 (50 ng/ml)): Angiogenesis
- Response to Growth Factors, Normal Cells ([4]; FGF-2, concentration not given): Cell death
- Response to Growth Factors, Cell Lines ([5]; FGF-2 (50 ng/ml)): Angiogenesis
- Response to Growth Factors, Cell Lines ([5]; FGF-2, concentration not given): Cell death

Compound: benzalkonium chloride
- wound / change of corneal transparency (reconstructed corneas [6]): caused wounds to the centre of the cornea
- live-dead staining, epithelial cells (reconstructed corneas [7]): some dead and dying cells but mostly live cells
- live-dead staining, stromal cells (reconstructed corneas [7]): mostly alive
- penetration into the stromal compartment (reconstructed corneas [7]): little/no penetration of solution into the stromal compartment
